From patent US10399966B2, “Compounds for treatment of trypanosomes and neurological pathogens and uses thereof” (The University of North Carolina at Chapel Hill, priority 2016, dated 2019)
“And” between values parts separate entries of the source, which are not always exact repeats. Equal values may be shown once. Read-outs that look alike come from different tables or passages of the source.

Columns and labels:
human hepatocytes HepG2 = experiment: Cytotoxicity against HepG2 cells
T. b. brucei = experiment: In vitro antitrypanosomal activity against T. brucei (growth inhibition); format: cell-based, Trypanosoma brucei
Outline: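 Dose-response EC50 against T. brucei parasites with 0.4% DMSO final, 48 h at 37 °C; parasite density quantified by ATP luminescence (CellTiter-Glo).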

[1] = Rat pharmacokinetics, intravenous administration; format: in vivo; design: AUC(0-inf): unit not given here; conditions: 5 mg/kg; for AUC(0-inf) / Cmax / half-life / clearance / Vd: rat, iv; for Cmax / half-life / clearance / Vd: plasma
Method: The pharmacokinetics of compound 1 was tested in rats after intravenous and oral administration. Two rats were administered 5 mg/kg compound 1 intravenously in a vehicle consisting of 7% Tween 80, 3% EtOH, 5% DMSO in saline. Two rats were administered 20 mg/kg compound 1 orally in a vehicle consisting of 5% DMSO, 0.5% Tween 80, 1% methylcellulose in water. The results are shown in Table 4 and FIGS. 3A-3B and 4A-4B.

T. b. brucei TREU667 = experiment: Mouse efficacy model of chronic T. brucei infection; format: in vivo; conditions: 50 mg/kg po b.i.d. x 10 days from day 21, no detectable parasitemia through 180 days post-infection, 50 mg/kg
Method: For chronic efficacy, experiments were done in compliance with the University of Washington IACUC approved protocol. According to published procedures, groups of 5 mice were infected with 1×10^4 T. b. brucei (strain TREU667) at day 0 to establish a chronic infection. Treatment began on day 21 post-infection, and mice received 50 mg/kg test compound orally b.i.d. for 10 d (total of 20 doses) in a 200 μL volume of a vehicle composed of Phosal 53 MCT (60%), PEG400 (30%) and EtOH (10%). A control group received vehicle with no compound and another control group received a single intraperitoneal dose of diminazene aceturate at 10 mg/kg in water on day 21. […] Post dosing, parasitemia was monitored via microscopic examination of tail blood slides until 180 days post-infection. Mice were removed from the experiment once parasites were detected in the blood.
In a model of the chronic phase of HAT, compound 1 was administered to five mice infected with T. b. brucei TREU667 at 50 mg/kg/po b.i.d.×10 days, beginning 21 days post-infection. […] Efficacy PK blood samples were collected from three of the five mice prior to dose 15, and at 1 h and 6 h post-dose. […] Compound 1 attained 5/5 cures as determined by the absence of detectable parasitemia in any of the treated mice through 180 days post-infection (FIG. 2). […]

[2] = system: human lymphocytes CRL-8155; experiment: Cytotoxicity against CRL-8155 cells
Method: The selectivity of each compound for the parasite over each of the two cell lines was calculated.

[3] = Metabolic stability in mouse liver microsomes; format: in vitro ADME
Method: Metabolic stability was evaluated using liver microsomes derived from mouse and human sources. Microsomal incubations were carried out according to a protocol described previously (Wang et al., Antimicrob. Agents Chemother. 54:2507 (2010)) with modifications. Briefly, substrate stock solutions were prepared in DMSO and DMSO content was kept at 0.5% (v/v) in final incubations. Incubation mixtures ([…]), liver microsomes (0.5 mg/mL) from mouse (pool of 1000, CD-1 male mouse) or human (pool of 50, mixed gender) (XenoTech LLC, Lenexa, Kans.) in a phosphate buffer (100 mM, pH 7.4) containing 3.3 mM MgCl2. After a 5-minute pre-equilibration period at 37° C., reactions (in triplicate) were initiated by adding the NADPH cofactor (1 mM). For NADPH-independent reactions, the cofactor was replaced with water. Aliquots (10 μl) of the reaction mixtures were removed at 0, 15, 30, and 60 minutes and individually mixed with 200 μL of ice-cold acetonitrile containing internal standard. The mixtures were vortex-mixed, and precipitated protein was removed by centrifugation at 2,250×g for 15 min. The supernatant fractions were dried using a 96-well microplate evaporator (Apricot Designs Inc., Covina, Calif.) under N2 at 50° C. and reconstituted with 100 μL 50% methanol containing 0.1% trifluoroacetic acid before UPLC-MS/MS analysis. In vitro half-life (t1/2) was obtained by analyzing the substrate concentration vs. incubation time curve using the one-phase exponential decay model (GraphPad Prism® 5.0, San Diego, Calif.).

Compound: O=C(Nc1ccc2sc(-c3ccc(F)c(F)c3)nc2c1)N1CC[C@H](F)C1 [Compound 1, (S)-2-(3,4-Difluorophenyl)-5-(3-fluoro-N-pyrrolidylamido)benzothiazole]
- toxicity to the HepG2 cells (in words) (human hepatocytes HepG2): no detectable toxicity
- EC50 (human hepatocytes HepG2; Homo sapiens, HepG2, read-out: HepG2 EC50): > 50000 nM
- EC90 (human hepatocytes HepG2; read-out: HepG2 EC90, concentration required to inhibit growth by 90%, human hepatocytes): > 50000 nM
- EC90 (T. b. brucei; Table 1, Trypanosoma brucei, read-out: EC90): 54.8 nM
- EC50 (T. b. brucei; Trypanosoma brucei, Table 1, Trypanosoma brucei, read-out: EC50): 34.8 nM
- EC50 (T. b. brucei; Trypanosoma brucei, Table 6, read-out: T. brucei EC50): 34.8 nM
- EC50 (T. b. brucei; Trypanosoma brucei, Table 8, read-out: T. brucei EC50): 34.8 nM
- EC50 (T. b. brucei; Trypanosoma brucei, Table 11, read-out: T. b. brucei EC50): 34.8 nM
- EC50 (T. b. brucei; Trypanosoma brucei, Table 12, read-out: T. b. brucei EC50): 34.8 nM
- EC50 (T. b. brucei; Trypanosoma brucei, Table 9, read-out: T. brucei EC50): 34.8 nM
- EC90 (T. b. brucei; Trypanosoma brucei, Table 9, read-out: T. brucei EC90): 54.8 nM
- Tmax ([1]; Mean ± SEM (n = 2)): 5 min
- Tmax ([1]; Rat 2): 5 min
- Tmax ([1]; in vivo, Rat 1, read-out: Tmax (converted)): 5 min
- AUC(0-inf) ([1]; in vivo, Mean ± SEM (n = 2)): 1440
- AUC(0-inf) ([1]; in vivo, Rat 1): 1380
- AUC(0-inf) ([1]; in vivo, Rat 2): 1500
- Cmax ([1]; Mean ± SEM (n = 2)): 11.7 µM
- half-life ([1]; Mean ± SEM (n = 2), read-out: Apparent T1/2 (min) for steady state): 96.7 min
- half-life ([1]; Mean ± SEM (n = 2), read-out: Apparent T1/2 (min) for terminal phase): 96.7 min
- clearance ([1]; Mean ± SEM (n = 2), read-out: Plasma CL): 9.35 mL/min/kg
- Vd ([1]; Mean ± SEM (n = 2), read-out: Plasma Vz): 0.76 L/kg
- Vd ([1]; Mean ± SEM, read-out: Plasma Vss): 1.31 L/kg
- Cmax ([1]; Rat 1): 12.1 µM
- half-life ([1]; Rat 1, read-out: Apparent T1/2 (min) for steady state): 88.5 min
- half-life ([1]; Rat 1, read-out: Apparent T1/2 (min) for terminal phase): 88.5 min
- clearance ([1]; Rat 1, read-out: Plasma CL): 10.3 mL/min/kg
- Vd ([1]; Rat 1, read-out: Plasma Vss): 1.32 L/kg
- Vd ([1]; Rat 1, read-out: Plasma Vz): 0.882 L/kg
- Cmax ([1]; Rat 2): 11.3 µM
- half-life ([1]; Rat 2, read-out: Apparent T1/2 (min) for steady state): 105 min
- half-life ([1]; Rat 2, read-out: Apparent T1/2 (min) for terminal phase): 105 min
- clearance ([1]; Rat 2, read-out: Plasma CL): 8.38 mL/min/kg
- Vd ([1]; Rat 2, read-out: Plasma Vss): 1.3 L/kg
- Vd ([1]; Rat 2, read-out: Plasma Vz): 0.639 L/kg
- mice cured (cures) (T. b. brucei TREU667): 5 of 5 and 5/5
- toxicity to the CRL-8155 cells (in words) [2]: no detectable toxicity
- EC50 ([2]; read-out: CRL-8155 EC50, concentration required to inhibit growth by 50%, human lymphoblasts): > 50000 nM
- EC90 ([2]; read-out: CRL-8155 EC90, concentration required to inhibit growth by 90%, human lymphoblasts): > 50000 nM
- Microsome t1/2 (min) Mouse ([3]; Table 5): >60 min
- Mouse microsomes, percentage of compound remaining ([3]; Table 12, after 60 min (where t1/2 > 60 min)): 73%
- half-life at 3 μM ([3]; male, CD-1, liver microsomes, pH 7.4, mouse microsomes, read-out: microsomal half-life): > 1 h
- half-life at 1.5 μM ([3]; male, CD-1, mouse, liver microsomes, pH 7.4, Table 12, 37° C., NADPH (1 mM), microsomes 0.5 mg/mL, test compounds 1.5 μM, read-out: Mouse microsomes t1/2): > 1 h
